From paper PMC9920749, “In Vitro and In Silico Studies of Neolignans from Magnolia grandiflora L. Seeds against Human Cannabinoids and Opioid Receptors” (Molecules, 2023)
Like-named read-outs stand apart in the source and are kept apart here.

Legend:
[1] = biological target: T1, CB2R (Homo sapiens, UniProt P34972); assay: Competitive radioligand binding assay, [3H]-CP55,940, HEK293 membranes; conditions: for Cannabinoid Receptors (% Displacement) CB2: 10 μM purified compounds and 2 + 3
T1 construct: expressed in transfected cells; host or cells: HEK293 (ATCC), stably transfected; membrane preparation
T1 sequence (P34972 whole entry): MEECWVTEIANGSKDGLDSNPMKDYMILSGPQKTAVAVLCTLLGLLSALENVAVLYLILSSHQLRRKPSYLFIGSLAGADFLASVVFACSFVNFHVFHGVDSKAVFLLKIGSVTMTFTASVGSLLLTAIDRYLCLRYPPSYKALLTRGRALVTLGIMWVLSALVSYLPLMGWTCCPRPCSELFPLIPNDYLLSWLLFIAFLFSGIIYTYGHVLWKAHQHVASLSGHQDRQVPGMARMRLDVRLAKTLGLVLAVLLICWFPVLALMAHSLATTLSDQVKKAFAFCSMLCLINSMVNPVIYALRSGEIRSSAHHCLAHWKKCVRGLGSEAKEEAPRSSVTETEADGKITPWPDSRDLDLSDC
Experimental: (§1) Cannabinoid and opioid competitive radioligand binding assays were performed as previously described. Saturation experiments were performed for all the receptors to determine receptor concentration and radioligand dissociation constant (Kd) for the membrane. Percent displacements were evaluated for all the cannabinoid and opioid subtypes with a triplicate of a fixed concentration (10 µg/mL for extracts and fractions, 10 μM for purified compounds). […] Control/test compounds were dissolved in DMSO at 10 μg/mL for extracts and fractions and 10 μM for purified compounds. […] The competitive binding assays were performed using 12 serial dilutions of each compound ranging from 0.002–300 μM (control compounds were serially diluted from 10 μM to 0.06 nM). The cannabinoid assays were incubated for 90 min at 37 °C with gentle agitation. The opioid assays were incubated for 60 min at room temperature. Bound radioligand was collected on GF/C (cannabinoid) or GF/B plates (opioid), washed 10 times with ice-cold 50 mM Tris-HCl (pH 7.4)/0.1% BSA (cannabinoid) or ice-cold 50 mM Tris-HCl (pH 7.4) (opioid). Radiodetection was measured with 50 µL (cannabinoid) or 25 µL (opioid) MicroScint^TM-20 on a TopCount NXT HTS Microplate Scintillation Counter (PerkinElmer, Waltham, MA, USA). The IC50 and Ki values were calculated by a non-linear curve fit model using GraphPad Prizm 5.0 software (GraphPad Software Inc., San Diego, CA, USA). Each compound was tested in triplicate unless stated otherwise.
(§2) Percent displacement was calculated to represent the ability of the samples to displace the radioligand binding for a given cannabinoid or opioid receptor subtype.
(§3) % displacement was calculated as follows: 100− binding of compound−nonspecific binding/specific binding×100

[2] = test system: CB2R; parameters: method as in Schuehly et al. (2011); conditions: ref Schuehly et al. (2011); cited from earlier work
[3] = test system: CB2 receptor; parameters: method as in PMID 24204944; conditions: forskolin-induced cAMP; cited from earlier work
[4] = biological target: T2, µ opioid receptor (Homo sapiens, UniProt P35372); assay: biochemical; format: binding; conditions: for Opioid Receptors (% Displacement) µ: 10 μM purified compounds and 2 + 3; for IC50: 2 and 3 run as a singlet; for µ Opioid Receptor Ki ± SEM / Ki: 2 and 3 run as a singlet (no S.E.M.); for Ki: read-out: µ Opioid Receptor Ki ± SEM
T2 construct: host or cells: HEK293, stably transfected; membrane preparation
T2 sequence (P35372 whole entry): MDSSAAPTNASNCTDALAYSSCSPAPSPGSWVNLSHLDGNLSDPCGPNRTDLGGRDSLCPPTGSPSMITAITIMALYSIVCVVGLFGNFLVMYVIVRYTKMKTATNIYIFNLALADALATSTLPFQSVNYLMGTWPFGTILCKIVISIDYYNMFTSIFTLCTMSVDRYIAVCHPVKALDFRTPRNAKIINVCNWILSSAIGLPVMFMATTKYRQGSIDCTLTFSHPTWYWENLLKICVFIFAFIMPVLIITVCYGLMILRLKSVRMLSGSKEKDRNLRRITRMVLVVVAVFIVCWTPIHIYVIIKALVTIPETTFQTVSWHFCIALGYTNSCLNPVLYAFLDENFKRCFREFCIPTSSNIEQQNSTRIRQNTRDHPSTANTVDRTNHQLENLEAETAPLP
Experimental: (§4) HEK293 cells stably transfected with δ, κ, and μ opioid subtypes were a generous gift from Roth Laboratories (University of North Carolina at Chapel Hill, NC, USA). Opioid cells were maintained as previously described. Membranes were made by washing the cells with cold PBS. The cells were then scraped in cold 50 mM Tris-HCl, pH 7.4 buffer. The solution was centrifuged at 5200× g for 10 min at 4 °C. Next, the supernatant was discarded, and the pellet was washed with more Tris-HCl buffer, homogenized via Sonic Dismembrator (Fisher Scientific, Pittsburgh, PA, USA) and then centrifuged at 24,000× g for 40 min at 4 °C. Finally, the pellet was re-suspended in cold 50 mM Tris-HCl buffer, aliquoted into 2 mL vials, and stored at −80 °C. The total membrane protein concentration was measured using a Pierce BCA Protein Assay Kit (Thermo Scientific, Rockford, IL, USA) as per the manufacturer’s protocol.
as §1, §2, §3

[5] = test system: CB1 receptor; parameters: method as in PMID 24204944; conditions: forskolin-induced cAMP; cited from earlier work
[6] = biological target: CB2R; conditions: cited from earlier work
[7] = biological target: T3, δ opioid receptor (Homo sapiens, UniProt P41143); assay: Competitive radioligand binding assay, [3H]-enkephalin (DPDPE), HEK293 membranes; conditions: 10 μM purified compounds and 2 + 3
T3 construct: host or cells: HEK293, stably transfected; membrane preparation
T3 sequence (P41143 whole entry): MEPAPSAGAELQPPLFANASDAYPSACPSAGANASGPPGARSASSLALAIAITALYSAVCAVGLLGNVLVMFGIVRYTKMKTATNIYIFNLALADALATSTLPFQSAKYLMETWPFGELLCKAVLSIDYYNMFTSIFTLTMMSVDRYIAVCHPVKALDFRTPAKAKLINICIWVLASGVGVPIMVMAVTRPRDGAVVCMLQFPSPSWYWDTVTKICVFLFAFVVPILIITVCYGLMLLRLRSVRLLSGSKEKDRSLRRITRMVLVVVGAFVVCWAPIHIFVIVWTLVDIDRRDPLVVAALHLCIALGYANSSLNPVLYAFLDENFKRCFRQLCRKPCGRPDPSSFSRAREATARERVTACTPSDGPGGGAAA
Experimental: as §4, with “Finally, the pellet was re-suspended in cold 50 mM Tris-HCl buffer, aliquoted into 2 mL vials, and stored at −80 °C.” left out
(§5) Cannabinoid and opioid competitive radioligand binding assays were performed as previously described. […] Percent displacements were evaluated for all the cannabinoid and opioid subtypes with a triplicate of a fixed concentration (10 µg/mL for extracts and fractions, 10 μM for purified compounds). […] Radiodetection was measured with 50 µL (cannabinoid) or 25 µL (opioid) MicroScint^TM-20 on a TopCount NXT HTS Microplate Scintillation Counter (PerkinElmer, Waltham, MA, USA). The IC50 and Ki values were calculated by a non-linear curve fit model using GraphPad Prizm 5.0 software (GraphPad Software Inc., San Diego, CA, USA). […]

[8] = biological target: T4, κ opioid receptor (Homo sapiens, UniProt P41145); format: binding; conditions: 10 μM purified compounds and 2 + 3
T4 construct: host or cells: HEK293, stably transfected; membrane preparation
T4 sequence (P41145 whole entry): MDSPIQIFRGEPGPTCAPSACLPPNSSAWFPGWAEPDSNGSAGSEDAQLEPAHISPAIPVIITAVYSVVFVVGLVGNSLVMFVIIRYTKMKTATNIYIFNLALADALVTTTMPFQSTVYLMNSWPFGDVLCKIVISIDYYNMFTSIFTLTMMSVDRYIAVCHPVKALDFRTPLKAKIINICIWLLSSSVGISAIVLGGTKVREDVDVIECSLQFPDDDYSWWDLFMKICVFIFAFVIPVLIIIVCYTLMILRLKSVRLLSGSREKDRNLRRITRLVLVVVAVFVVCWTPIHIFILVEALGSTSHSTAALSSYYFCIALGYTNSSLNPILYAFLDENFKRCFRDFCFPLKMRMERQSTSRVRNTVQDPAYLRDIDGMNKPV
Experimental: as §4, with “Finally, the pellet was re-suspended in cold 50 mM Tris-HCl buffer, aliquoted into 2 mL vials, and stored at −80 °C.” left out
as §5

[9] = test system: CB2R; parameters: method as in earlier work; conditions: ref 27 (Rempel et al. 2013); cited from earlier work
[10] = biological target: CB1R; conditions: data from the original publication; read-out: CB1R Agonist Ki; cited from earlier work
[11] = biological target: T5, CB1R (Homo sapiens, UniProt P21554); assay: Competitive radioligand binding assay, [3H]-CP55,940, HEK293 membranes; conditions: for Cannabinoid Receptors (% Displacement) CB1: 10 μM purified compounds and 2 + 3; for IC50: concentration for 50% displacement of 3H-labeled ligand; for Ki: read-out: CB1R Ki ± SEM
T5 construct: expressed in transfected cells; host or cells: HEK293 (ATCC), stably transfected; membrane preparation
T5 sequence (P21554 whole entry): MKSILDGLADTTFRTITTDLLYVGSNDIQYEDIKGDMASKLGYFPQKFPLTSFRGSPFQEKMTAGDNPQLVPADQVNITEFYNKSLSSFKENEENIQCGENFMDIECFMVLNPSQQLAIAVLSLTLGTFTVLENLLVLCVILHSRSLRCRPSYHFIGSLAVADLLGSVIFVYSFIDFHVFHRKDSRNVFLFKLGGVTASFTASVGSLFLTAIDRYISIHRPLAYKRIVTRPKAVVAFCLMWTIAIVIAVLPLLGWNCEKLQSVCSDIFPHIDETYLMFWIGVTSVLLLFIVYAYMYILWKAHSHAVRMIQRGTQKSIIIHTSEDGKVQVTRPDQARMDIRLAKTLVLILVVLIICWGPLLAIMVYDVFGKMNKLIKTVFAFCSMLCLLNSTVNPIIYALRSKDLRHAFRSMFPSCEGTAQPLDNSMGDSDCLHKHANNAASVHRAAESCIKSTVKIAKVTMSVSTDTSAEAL
Experimental: as §4, §1, §2, §3

[12] = data from the original publication, read-out: CB2R Agonist Ki
[13] = concentration for 50% displacement of 3H-labeled ligand, read-out: CB2R IC50

CCCCCCC(C)(C)c1ccc([C@@H]2C[C@H](O)CC[C@H]2CCCO)c(O)c1 [CP55,940, reference compound]
Cannabinoid Receptors (% Displacement) CB2 [1]: 101.3%

C=CCc1ccc(O)c(-c2ccc(OC)c(CC=C)c2)c1 [Compound 1, 4-O-methylhonokiol]
behavior at CB2R at Gi/o [2]: inverse agonist | behavior at CB2R regarding intracellular Ca2+ [Ca2+]i [2]: full agonist | functional activity at CB2 in cAMP accumulation [3]: agonist | IC50 [1]: 590 nM | Ki [1]: 290 ± 20 nM | Cannabinoid Receptors (% Displacement) CB2 [1]: 82.2% | Opioid Receptors (% Displacement) µ [4]: 46.2% | functional activity at CB1 in cAMP accumulation [5]: agonist | Ki [6, 12]: 43.3 ± 17.1 nM | Opioid Receptors (% Displacement) Δ [7]: 31.4% | Opioid Receptors (% Displacement) κ [8]: 18.3%

C=CCc1ccc(O)c(-c2cc(CC=C)ccc2O)c1 [Compound 2, magnolol]
Cannabinoid Receptors (% Displacement) CB2 [1]: 74.7% | IC50 [1, 13]: 2890 nM | Ki ([1]; read-out: CB2R Ki ± SEM): 1400 ± 140 nM | Opioid Receptors (% Displacement) µ [4]: 52.9% | IC50 [4]: 106000 nM | µ Opioid Receptor Ki ± SEM [4]: low affinity | Ki [4]: 53100 nM | functional character at CB2R [9]: partial CB2R agonists | Ki [10]: 3150 nM | Ki [6, 12]: 1440 nM | Cannabinoid Receptors (% Displacement) CB1 [11]: 52.7% | IC50 [11]: 35600 nM | Ki [11]: 17800 ± 3430 nM | Opioid Receptors (% Displacement) Δ [7]: 7.3% | Opioid Receptors (% Displacement) κ [8]: 10.7%

C=CCc1ccc(O)c(-c2ccc(O)c(CC=C)c2)c1 [Compound 3, honokiol]
Cannabinoid Receptors (% Displacement) CB2 [1]: 65.7% | IC50 [1, 13]: 3880 nM | Ki ([1]; read-out: CB2R Ki ± SEM): 1940 ± 160 nM | Opioid Receptors (% Displacement) µ [4]: 54.2% | IC50 [4]: 91100 nM | µ Opioid Receptor Ki ± SEM [4]: low affinity | Ki [4]: 182000 nM | functional character at CB2R [9]: CB2R antagonist or inverse agonist | Ki [10]: 6460 nM | Ki [6, 12]: 5610 nM | Cannabinoid Receptors (% Displacement) CB1 [11]: 50.8% | IC50 [11]: 29100 nM | Ki [11]: 14500 ± 2470 nM

CCCc1ccc(O)c(-c2cc(CCC)ccc2O)c1 [Compound 4, tetrahydromagnolol]
Cannabinoid Receptors (% Displacement) CB2 [1]: 78.2% | IC50 [1, 13]: 1990 nM | Ki ([1]; read-out: CB2R Ki ± SEM): 990 ± 140 nM | functional character at CB2R [9]: partial CB2R agonists | Ki [10]: 2260 nM | Ki [6, 12]: 416 nM | Ki ([6]; ref 27 (Rempel et al. 2013), read-out: CB2R Ki): 410 nM | Cannabinoid Receptors (% Displacement) CB1 [11]: 30.8% | IC50 [11]: 38200 nM | Ki [11]: 19100 ± 790 nM

CCCc1ccc(O)c(-c2cc(CCC)ccc2OC)c1 [Compound 4a, methoxytetrahydromagnolol]
Ki [10]: 267 ± 58 nM | Ki [6, 12]: 221 ± 57 nM

CCCCCc1ccc(O)c(-c2cc(CCC)ccc2O)c1 [Compound 5]
Ki [10]: 362 ± 113 nM | Ki [6, 12]: 37.5 ± 7.8 nM

CCCCCc1ccc(O)c(-c2cc(CCC)ccc2OC)c1 [Compound 5a]
Ki [10]: 17.3 ± 1.4 nM | Ki [6, 12]: 31 ± 9.9 nM

CCCCCCc1ccc(O)c(-c2cc(CCC)ccc2O)c1 [Compound 6]
Ki [10]: 145 ± 48 nM | Ki [6, 12]: 29.4 ± 9 nM

CCCCCCc1ccc(O)c(-c2cc(CCC)ccc2OC)c1 [Compound 6a]
Ki [10]: 9.57 ± 5.43 nM | Ki [6, 12]: 23.8 ± 7.1 nM

CCCCCCc1ccc(OC)c(-c2cc(CCC)ccc2O)c1 [Compound 6b]
Ki [10]: 313 nM | Ki [6, 12]: 281 ± 101 nM
